In patent publication US8334298B2, “Treatment or prevention of ovarian hyperstimulation syndrome (OHSS) using a dopamine agonist” (Ferring International Center S.A., priority 2005, dated 2012):
Values joined by “and” are separate entries in the source; they are usually repeats but may differ in a detail not shown here. Identical values can stand only once.

What was measured:
OHSS rats [1] = experiment: Dose response of quinagolide on vascular permeability in OHSS rats (Example 4); assay type: in vivo, Wistar rats; details: single rat, 48-56 h after hCG
Procedure: (§1) Inducing OHSS manifestations. A total of 96 female immature Wistar rats (Harlan Iberica, Sant Feliu de Codina, Barcelona, SPAIN), weighing from 42-48 grams at the beginning of these experiments (day 22), were used to carry out the studies disclosed in Examples 4 and 5. They were injected subcutaneously (s.c) with 10 IU of Pregnant Mare's Serum Gonadotropin (PMSG) (Sigma) for 4 consecutive days (days 22-25), followed by administered intraperitoneally (i.p.) with 30 IU of hCG on the fifth day (day 26) in order to induce OHSS clinical manifestations.
(§2) Measuring vascular permeability (VP). VP was used as an index to estimate and compare the degree of development of the illness. VP was measured in all animals 48-56 hours after hCG administration, following methodology previously described (Gomez et al., supra). Briefly, 0.2 ml Evans Blue dye, 0.05 M, was injected through the femoral vein. After 30 minutes, the peritoneal cavity was irrigated with 5 ml saline, pH 6, 22° C., and massaged for 30 seconds to recover extravasated dye. The peritoneal fluid was recovered in 13 ml tubes containing 0.1 ml NaOH. The tubes were centrifuged at 900×g for 12 minutes to avoid protein interference. The supernatant was filtered through 0.22 um filters in order to eliminate ascitic protein/fibrin mucus which could interfere in the posterior measurements. Finally the absorbance of the extravasated dye was measured at 595 nm using a spectrophotometer. Average and average deviations in each group (see below) were calculated. VP was expressed as μg extravasated Evans Blue dye/100 g body weight in each animal.
A total of 70 rats were used for this study. All 70 rats were administered PMSG/hCG to induce OHSS symptoms, as described above. Quinagolide (batch no. 1010003004; supplied by Ferring Labs) was administered to 56 rats. The 56 rats that received quinagolide were used as a dose response test group. […] Cabergoline (Dostinex®) was administered to 6 rats as a positive control. The specific details of the dosing regimen for each group is as follows:
Vehicle control group (quinagolide 0 μg/kg) (n=8). Eight rats were implanted with prolactin placebo pellets, 5 days release, between 10:00 to 11:00 on day 26, just following hCG injection (see General Procedures, above). Six hours after pellet implantation, the rats in this group were orally administered vehicle solution (1:6 alcohol in water mixture) (without quinagolide). They received another oral vehicle administration of vehicle solution 24 hours later. Experimental groups (quinagolide at 0.1, 0.3, 1, 3, 10, 25, 50 μg/kg/day to 7 test groups of rats) (n=8 in each test group). The rats in these groups were implanted with prolactin pellets, 5 days release, between 10:00 to 11:00 on day 26, just following hCG injection (see General Procedures, above). […] In this manner, the desired 0.1, 0.3, 1, 3, 10, 25, 50 μg/kg doses to be assayed were achieved. Twenty four hours later, the rats in this group were administered with another dose of the same amounts of quinagolide. Positive (cabergoline) control group (n=6). These six rats were implanted with prolactin pellets, 5 days release, between 10:00 to 11:00 .m on day 26, just following hCG injection. […] Twenty four hours later, the rats in this group were administered with another dose of the same amount of cabergoline. […] Reconstitution and dilution process to reach appropriate quinagolide doses for oral administration. Appropriate doses were prepared fresh just prior to being administered (on day 26). A single quinagolide vial, containing approximately 2.30-2.30 mg quinagolide, was employed for each single set of animals. For each solution, approximately 2.30-2.30 mg quinagolide was diluted in a vehicle solution (1:6 alcohol:water mixture) to achieve a stock concentration of 100 μg quinagolide per ml solution. […]

OHSS rats [2] = experiment: Dose response of quinagolide on vascular permeability in OHSS rats, reassessment (Example 5); assay type: in vivo, Wistar rats; details: single rat
Procedure: as §1, §2
For Example 5, three quinagolide doses were tested: 5, […] 250 μg/kg/day. The 250 μg/kg/day dose was tested in order to determine if the maximal potential inhibitory effect of quinagolide had been reached in Example 4.
A total of 26 rats were used for this study. All 26 rats were administered PMSG/hCG to induce OHSS symptoms, as described above. Quinagolide was administered to 18 rats, divided into three groups of six rats per group. The 18 rats that received quinagolide were used as a dose response test group. […] A positive control group was not employed for this Example. The specific details of the dosing regimen for each group is as follows:
Vehicle control group (quinagolide 0 μg/kg) (n=8). Eight rats were implanted with prolactin placebo pellets, 5 days release, between 10:00 to 11:00 on day 26, just following hCG injection (see General Procedures, above). Six hours after prolactin placebo pellet implantation, the rats in this group were orally administered vehicle solution (1:6 alcohol:water mixture) (without quinagolide). They received another oral administration of vehicle solution 24 hours later. Experimental groups (quinagolide at 5, 62.5, 250 μg/kg/day to 3 test groups of rats) (n=6 in each test group). These rats were implanted with prolactin pellets, 5 days release, between 10:00 to 11:00 am on day 26, just following hCG injection (see General Procedures, above). […] In this manner, the desired 5, 62.5, and 250 μg/kg doses to be assayed were achieved. Twenty four hours later, the rats in this group were administered with another dose of the same amounts of quinagolide. Reconstitution and dilution process to reach appropriate quinagolide doses for oral administration. A commercial drug, Norprolac®, was used as the source of quinagolide for this Example. Four Norprolac® pills, containing 150 μg quinagolide each (600 μg quinagolide total) were diluted in 6250 μl of distilled water. A volume of 1250 μl of alcohol was added to reach a vehicle solution (1:6 alcohol:water mixture) containing 80 μg quinagolide per ml solution. A 1.5 ml aliquot was serially diluted (1:4, 1:12.5) in the same vehicle solution. A 250 μl oral administration of each quinagolide solution was given to the appropriate rat in each group on the same day hCG was administered (day 26), as described. […]

[3] = quinagolide 5 μg/kg/day oral (Norprolac pills)
[4] = quinagolide 250 μg/kg/day oral (Norprolac pills)
[5] = quinagolide 62. μg/kg/day oral (Norprolac pills)

CCCN1CC(NS(=O)(=O)N(CC)CC)CC2Cc3c(O)cccc3CC21 (stereo not drawn) [Quinagolide, quinagolide]
Absorbance at 595 nm (OHSS rats [1]; quinagolide 0.1 μg/kg/day oral): 0.081 and 0.646 and 0.338 and 0.35 | μg EB per 100 g body weight (OHSS rats [1]; quinagolide 0.1 μg/kg/day oral): 4.871 μg EB per 100 g body weight and 37.81 μg EB per 100 g body weight and 21.05 μg EB per 100 g body weight and 21.19 μg EB per 100 g body weight | μg Evans Blue (Abs * 4360) (OHSS rats [1]; quinagolide 0.1 μg/kg/day oral): 353.16 µg and 2816.56 µg and 1473.68 µg and 1526 µg | Absorbance at 595 nm (OHSS rats [1]; quinagolide 0.3 μg/kg/day oral): 0.28 and 0.547 and 0.768 and 0.342 and 0.444 | μg EB per 100 g body weight (OHSS rats [1]; quinagolide 0.3 μg/kg/day oral): 16.96 μg EB per 100 g body weight and 36.69 μg EB per 100 g body weight and 47.84 μg EB per 100 g body weight and 20.57 μg EB per 100 g body weight and 25.8112 μg EB per 100 g body weight | μg Evans Blue (Abs * 4360) (OHSS rats [1]; quinagolide 0.3 μg/kg/day oral): 1220.8 µg and 2384.92 µg and 3348.48 µg and 1491.12 µg and 1935.84 µg | Absorbance at 595 nm (OHSS rats [1]; quinagolide 1 μg/kg/day oral): 0.396 and 0.341 and 0.389 and 0.424 and 0.256 and 0.205 | μg EB per 100 g body weight (OHSS rats [1]; quinagolide 1 μg/kg/day oral): 27.85 μg EB per 100 g body weight and 22.53 μg EB per 100 g body weight and 22.32 μg EB per 100 g body weight and 26.41 μg EB per 100 g body weight and 14.31 μg EB per 100 g body weight and 12.33 μg EB per 100 g body weight | μg Evans Blue (Abs * 4360) (OHSS rats [1]; quinagolide 1 μg/kg/day oral): 1726.56 µg and 1486.76 µg and 1696.04 µg and 1848.64 µg and 1116.16 µg and 893.8 µg | Absorbance at 595 nm (OHSS rats [1]; quinagolide 3 μg/kg/day oral): 0.09 and 0.394 and 0.181 and 0.584 and 0.369 and 0.581 | μg EB per 100 g body weight (OHSS rats [1]; quinagolide 3 μg/kg/day oral): 5.945 μg EB per 100 g body weight and 26.84 μg EB per 100 g body weight and 9.927 μg EB per 100 g body weight and 37.17 μg EB per 100 g body weight and 23.32 μg EB per 100 g body weight and 31.08 μg EB per 100 g body weight | μg Evans Blue (Abs * 4360) (OHSS rats [1]; quinagolide 3 μg/kg/day oral): 392.4 µg and 1717.84 µg and 789.16 µg and 2546.24 µg and 1608.84 µg and 2533.16 µg | Absorbance at 595 nm (OHSS rats [1]; quinagolide 10 μg/kg/day oral): 0.418 and 0.145 and 0.188 and 0.328 and 0.626 | μg EB per 100 g body weight (OHSS rats [1]; quinagolide 10 μg/kg/day oral): 24.63 μg EB per 100 g body weight and 8.543 μg EB per 100 g body weight and 12.42 μg EB per 100 g body weight and 19.73 μg EB per 100 g body weight and 37.39 μg EB per 100 g body weight | μg Evans Blue (Abs * 4360) (OHSS rats [1]; quinagolide 10 μg/kg/day oral): 1822.48 µg and 632.2 µg and 819.68 µg and 1430.08 µg and 2729.36 µg | Absorbance at 595 nm (OHSS rats [1]; quinagolide 25 μg/kg/day oral): 0.299 and 0.311 and 0.042 and 0.669 and 0.08 | μg EB per 100 g body weight (OHSS rats [1]; quinagolide 25 μg/kg/day oral): 19.17 μg EB per 100 g body weight and 19.23 μg EB per 100 g body weight and 2.654 μg EB per 100 g body weight and 40.51 μg EB per 100 g body weight and 4.501 μg EB per 100 g body weight | μg Evans Blue (Abs * 4360) (OHSS rats [1]; quinagolide 25 μg/kg/day oral): 1303.64 µg and 1355.96 µg and 183.12 µg and 2916.84 µg and 348.8 µg | Absorbance at 595 nm (OHSS rats [1]; quinagolide 50 μg/kg/day oral): 0.179 and 0.048 and 0.151 and 0.358 and 0.09 and 0.215 | μg EB per 100 g body weight (OHSS rats [1]; quinagolide 50 μg/kg/day oral): 10.84 μg EB per 100 g body weight and 2.847 μg EB per 100 g body weight and 9.144 μg EB per 100 g body weight and 22.95 μg EB per 100 g body weight and 5.267 μg EB per 100 g body weight and 12.5 μg EB per 100 g body weight | μg Evans Blue (Abs * 4360) (OHSS rats [1]; quinagolide 50 μg/kg/day oral): 780.44 µg and 209.28 µg and 658.36 µg and 1560.88 µg and 392.4 µg and 937.4 µg | Absorbance at 595 nm (OHSS rats [2]; [3]): 0.622 and 0.924 and 0.491 and 0.181 and 0.242 and 0.335 | μg EB per 100 g body weight (OHSS rats [2]; [3]): 38.74 μg EB per 100 g body weight and 55.57 μg EB per 100 g body weight and 28.74 μg EB per 100 g body weight and 10.96 μg EB per 100 g body weight and 14.76 μg EB per 100 g body weight and 22.13 μg EB per 100 g body weight | μg Evans Blue (Abs * 4360) (OHSS rats [2]; [3]): 2711.92 µg and 4028.64 µg and 2140.76 µg and 789.16 µg and 1055.12 µg and 1460.6 µg | Absorbance at 595 nm (OHSS rats [2]; [4]): 0.03 and 0.036 and 0.1709 and 0.021 and 0.103 and 0.056 | μg EB per 100 g body weight (OHSS rats [2]; [4]): 1.721 μg EB per 100 g body weight and 2.854 μg EB per 100 g body weight and 10.88 μg EB per 100 g body weight and 1.356 μg EB per 100 g body weight and 6.703 μg EB per 100 g body weight and 3.513 μg EB per 100 g body weight | μg Evans Blue (Abs * 4360) (OHSS rats [2]; [4]): 130.8 µg and 156.96 µg and 745.124 µg and 91.56 µg and 449.08 µg and 244.16 µg | Absorbance at 595 nm (OHSS rats [2]; [5]): 0.115 and 0.125 and 0.256 and 0.209 and 0.299 and 0.201 | μg EB per 100 g body weight (OHSS rats [2]; [5]): 7.214 μg EB per 100 g body weight and 7.517 μg EB per 100 g body weight and 16.06 μg EB per 100 g body weight and 13.3 μg EB per 100 g body weight and 19.03 μg EB per 100 g body weight and 12.26 μg EB per 100 g body weight | μg Evans Blue (Abs * 4360) (OHSS rats [2]; [5]): 501.4 µg and 545 µg and 1116.16 µg and 911.24 µg and 1303.64 µg and 876.36 µg
